{"source": "patent US7160733B2", "about": "“Ligand specific to β2-glycoprotein I and use thereof” (priority 2001, dated 2007)", "key": {"J774A.1 cells": {"tested_on": "J774A.1 cells", "experiment": "Liposome binding to macrophages (3H-labeled liposomes, 4° C.)", "format": "cell-based, murine", "conditions": "result in words; for direct binding of liposomes to macrophages: J774A.1 cells, 2 hours at 4° C., 50 nmol lipid/well, without β2-GPI and antibody; for binding of liposomes to macrophages after methylation of the ligand: liposomes containing methylated ligand, with β2-GPI and WB-CAL-1, FIGS. 20C and 20D; for uptake of ligand-containing liposomes to J774A.1 cells in the presence of both β2-GPI and WB-CAL-1: compared with cholesteryl linoleate-liposomes (control), FIG. 20", "procedure": "FIG. 10. Effect of phosphatidylserine (PS) or oxLig-1 content on the binding of liposomes to macrophages. A monolayer of J774.A1 cells was incubated for 2 hours at 4° C. with Celgrosser-P medium containing ^3H-labeled liposomes (50 nmol lipid/well). Open circle represents PS-liposomes; closed circle represents PS-Chol-liposomes; open square represents oxLig-1-liposomes; and closed square represents oxLig-1-Chol-liposomes. Data are indicated as the mean± SD of triplicate samples.\nFIG. 11. β2-GPI and anti-β2-GPI monoclonal antibody-dependent binding of ligand-containing liposomes to macrophage. A monolayer of J774.A1 cells was incubated for 2 hours at 4° C. with Celgrosser-P medium containing ^3H-labeled liposomes (50 nmol lipid/well) and WB-CAL-1, in the presence or absence of β2-GPI (200 μg/ml). • A: Binding of PS-liposomes (PS: 50 mol %,) to J774.A1. cells in the presence (closed square) or absence (open square) of β2-GPI (200 μg/ml) • B: Binding of oxLig-1-liposomes (oxLig-1: 40 mol %) to J774.A1 cells in the presence (black bar) or absence (white bar) of β2-GPI (200 μg/ml). • C: A monolayer of J774.A1 cells was incubated for 2 hours at 4° C. with Celgrosser-P medium containing ^3H-labeled synthesized oxLig-1-liposomes (50 nmol lipid/well) and WB-CAL-1, in the presence or absence of β2-GPI (200 μg/ml). Binding of synthesized oxLig-1-liposomes in the absence of β2-GPI and WB-CAL-1 (open circle), binding of synthesized oxLig-1-liposomes in the presence of β2-GPI (open square), binding of synthesized oxLig-1-liposomes in the presence of WB-CAL-1 (closed square), and binding of synthesized oxLig-1-liposomes in the presence of both β2-GPI and WB-CAL-1 (closed circle). Data are indicated as the mean ± SD of triplicate samples.\nA monolayer of J774.A1 cells was incubated for 2 hours at 4° C. with Celgrosser-P medium containing [^3H]-labeled liposomes (containing a predetermined ligand, 50 nmol lipid/well). DPPS-containing liposomes (open squares), oxLig-1-containing liposomes (closed squares), oxLig-2-containing liposomes (closed circles), and 13-COOH-7KC-containing liposomes (closed triangles). Data are indicated as mean± SD of triplicate samples.\nA monolayer of J774.A1 cells was incubated for 2 hours at 4° C. with Celgrosser-P medium containing [^3H]-labeled liposomes (containing a predetermined ligand (30 mmol %), 50 nmol lipid/well) and in the presence (black bars) or absence (white bars) of β2-GPI (200 μg/mL) and WB-CAL-1 ([…]).\nA monolayer culture of murine macrophage-like cells (J774A.1) obtained from Riken Cell Bank (Tsukuba) was maintained in RPMI 1640 medium supplemented with 10% fetal carf serum (FCS). For binding experiments, the cells (8×10^5 cells/mL, RPMI1640) were dispensed in an amount of 1 mL/well into a 12-well culture plate (Sumitomo Bakelite Co., Ltd.) and were incubated for 24 hours at 37° C., then the culture broth was replaced with Celgrosser-P medium (Sumitomo Pharmaceutical Co.). After one hour of preincubation at 37° C., 50 μL of liposomes (50 nmol lipid/well) with or without β2-GPI (200 μg/mL) and WB-CAL-1 (100 μg/mL) were added to each culture, and the cells were incubated at 4° C. and/or 37° C. The wells were next washed with chilled PBS, and the cells were lysed by adding 1 mL of 0.1N NaOH. An aliquot was taken for determination of cellular proteins and of radioactivity associated with the cells. Protein concentration was determined in a manner as described above."}, "EY2C9": {"tested_on": "EY2C9", "experiment": "ELISA on solid-phase lipid (ligand)-coated plate: EY2C9 binding in presence of β2-GPI", "parameters": "species or system human", "conditions": "for EY2C9 binding, No treatment: absorbance at 490 nm, mean ± SD (n = 3), solid-phase ligand not methylated", "procedure": "(§1) Binding to extracted lipids: A microtiter plate (Immulon 1B, Dynex Technologies Inc.) was coated with lipids extracted from LDLs (50 μg/mL, 50 μL/well) by ethanol evaporation. The wells were blocked with PBS containing 1% BSA for one hour and the wells were incubated with 30 μg/mL of β2-GPI for one hour. Then, β2-GPI binding was detected using Cof-22 and HRP-labeled anti-mouse IgG antibodies. Alternatively, an anti-β2-GPI autoantibody (Cof-22, WB-CAL-1, or EY2C9) was diluted with a 0.3% BSA-containing PBS, and the diluted antibody was added to the coated plate (1.0 μg/mL, 100 μL/well) and incubated with β2-GPI (15 μg/mL) for one hour. The binding of the antibody was detected by an HRP-labeled anti-mouse IgG /or an anti-human IgM. The color was developed with H2O2 and o-phenylenediamine, and OD was measured at 490 nm. Between these steps, extensive washing were done using PBS containing 0.05% Tween 20.\n(§2) Synthesized oxLig-1 (50 μg/mL, 50 μL/well) was adsorbed by evaporation on a polystyrene plate (Immulon 1B; Dynex Technologies Inc.), and the plate was then blocked with 1% BSA. Serum samples (diluted 1:100 with PBS containing 0.3% BSA) were incubated in the wells with β2-GPI (15 μg/mL) or other proteins for one hour at room temperature. Antibody binding was detected with HRP-labeled anti-human IgG. Further steps were performed through a method as described in “anti-β2-GPI ELISA.”\n(§3) CL (50 μg/mL, 50 μL/well) was adsorbed on a polystyrene plate (Immulon 1B), and further steps were performed through a method as described in “ELISA for antibodies against a protein-oxLig-1 complex.”"}, "WB-CAL-1": {"tested_on": "WB-CAL-1", "experiment": "ELISA on solid-phase lipid (ligand)-coated plate: WB-CAL-1 binding in presence of β2-GPI", "parameters": "species or system mouse", "conditions": "for WB-CAL-1 binding, No treatment: absorbance at 490 nm, mean ± SD (n = 3), solid-phase ligand not methylated", "procedure": "as §1, §2, §3"}, "β2-GPI [1]": {"target": "T1, β2-GPI (Homo sapiens, UniProt P02749)", "T1 construct": "β2-GPI was purified from normal human plasma as described in [35] with slight modification; from tissue; host or cells: pooled normal human plasma from healthy subjects", "T1 sequence (P02749 20-345)": "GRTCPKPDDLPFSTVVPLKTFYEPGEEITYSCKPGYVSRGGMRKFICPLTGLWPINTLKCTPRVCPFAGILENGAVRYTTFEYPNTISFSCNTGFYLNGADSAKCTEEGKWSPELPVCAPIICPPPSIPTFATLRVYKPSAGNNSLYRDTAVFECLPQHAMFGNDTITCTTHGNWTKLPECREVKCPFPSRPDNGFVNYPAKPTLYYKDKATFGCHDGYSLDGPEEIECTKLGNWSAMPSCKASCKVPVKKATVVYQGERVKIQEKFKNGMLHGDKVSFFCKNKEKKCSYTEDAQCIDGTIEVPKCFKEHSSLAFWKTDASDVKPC", "experiment": "ELISA on solid-phase lipid (ligand)-coated plate: β2-GPI binding detected with Cof-22", "conditions": "for β2-GPI binding (Cof-22 binding), No treatment: absorbance at 490 nm, mean ± SD (n = 3), solid-phase ligand not methylated; for β2-GPI binding to lipid: result in words (discussion)", "procedure": "as §1, §2, §3"}, "anti-β2-GPI antibodies": {"tested_on": "anti-β2-GPI antibodies", "experiment": "ELISA of the anti-β2-GPI antibodies by use of a ligand-coated plate (results in words)", "format": "binding", "conditions": "result in words; for binding of the anti-β2-GPI autoantibodies (WB-CAL-1 and EY2C9) to solid-phase ligand: ligand-coated plate", "procedure": "as §1, §2"}, "APS-1": {"tested_on": "APS-1", "experiment": "ELISA on solid-phase lipid-coated plate: binding of antibodies of APS patient serum APS-1", "parameters": "species or system human", "conditions": "Experiment 2; Absorbance, mean ± SD, n = 3; synthesized oxLig-1-solidified plate, added protein 15 μg/mL", "procedure": "(§4) To eliminate endogenous β2-GPI in some experiments, serum samples were passed through a heparin-Sepharose column. The effluent was dialyzed against PBS and was used for ELISAs.\nas §2, §3"}, "β2-GPI [2]": {"tested_on": "β2-GPI", "experiment": "ELISA on solid-phase lipid (ligand)-coated plate: β2-GPI binding detected with Cof-22", "parameters": "species or system human", "conditions": "Experiment 2; Absorbance, mean ± SD, n = 3; synthesized oxLig-1-solidified plate, added protein 15 μg/mL", "procedure": "as §1, §2, §3"}, "APS-2": {"tested_on": "APS-2", "experiment": "ELISA on solid-phase lipid-coated plate: binding of antibodies of APS patient serum APS-2", "parameters": "species or system human", "conditions": "Experiment 2; Absorbance, mean ± SD, n = 3; synthesized oxLig-1-solidified plate, added protein 15 μg/mL", "procedure": "as §4, §2, §3"}, "[3]": {"conditions": "Experiment 2, Absorbance, mean ± SD, n = 3, synthesized oxLig-1-solidified plate, added protein 15 μg/mL"}}, "data": [{"molecule": "CC(C)CCC[C@@H](C)[C@H]1CC[C@H]2[C@@H]3C(=O)C=C4C[C@@H](OC(=O)CCCCCCCCCCCC(=O)O)CC[C@]4(C)[C@H]3CC[C@]12C", "note": "[13-COOH-7KC, 13-oxo-13-(7-ketocholest-5-en-3β-yloxy)tridecanoic acid]", "values": [{"measurement": "direct binding of liposomes to macrophages", "setting": "J774A.1 cells", "value": "relatively low or negligible small"}, {"measurement": "binding of liposomes to macrophages after methylation of the ligand", "setting": "J774A.1 cells", "value": "substantially no binding"}, {"measurement": "uptake of ligand-containing liposomes to J774A.1 cells in the presence of both β2-GPI and WB-CAL-1", "setting": "J774A.1 cells", "value": "significantly enhanced"}, {"measurement": "EY2C9 binding, No treatment", "setting": "EY2C9", "value": "1.062 +/− 0.040"}, {"measurement": "WB-CAL-1 binding, No treatment", "setting": "WB-CAL-1", "value": "0.336 +/− 0.027"}, {"measurement": "β2-GPI binding (Cof-22 binding), No treatment", "setting": "β2-GPI [1]", "value": "1.303 +/− 0.049"}, {"measurement": "β2-GPI binding to lipid", "setting": "β2-GPI [1]", "value": "significant bonding"}, {"measurement": "binding of the anti-β2-GPI autoantibodies (WB-CAL-1 and EY2C9) to solid-phase ligand", "setting": "anti-β2-GPI antibodies", "value": "significant binding"}]}, {"molecule": "CC(C)CCC[C@@H](C)[C@H]1CC[C@H]2[C@@H]3CC=C4C[C@@H](O)CC[C@]4(C)[C@H]3CC[C@]12C", "note": "[cholesterol, Cholesterol, reference compound]", "values": [{"measurement": "β2-GPI binding to lipid", "setting": "β2-GPI [1]", "value": "did not bind"}, {"measurement": "binding of the three antibodies (WB-CAL-1, EY2C9, mouse monoclonal anti-β2-GPI antibody) to immobilized lipid", "setting": "anti-β2-GPI antibodies", "value": "did not bind"}]}, {"molecule": "CC(C)CCC[C@@H](C)[C@H]1CC[C@H]2[C@@H]3C(=O)C=C4C[C@@H](OC(=O)CCCCCCCC(=O)CCC(=O)O)CC[C@]4(C)[C@H]3CC[C@]12C", "note": "[oxLig-2, 4,12-dioxo-12-(7-ketocholest-5-en-3β-yloxy)dodecanoic acid]", "values": [{"measurement": "direct binding of liposomes to macrophages", "setting": "J774A.1 cells", "value": "relatively low or negligible small"}, {"measurement": "binding of liposomes to macrophages after methylation of the ligand", "setting": "J774A.1 cells", "value": "substantially no binding"}, {"measurement": "uptake of ligand-containing liposomes to J774A.1 cells in the presence of both β2-GPI and WB-CAL-1", "setting": "J774A.1 cells", "value": "significantly enhanced"}, {"measurement": "EY2C9 binding, No treatment", "setting": "EY2C9", "value": "1.018 +/− 0.121"}, {"measurement": "WB-CAL-1 binding, No treatment", "setting": "WB-CAL-1", "value": "0.518 +/− 0.023"}, {"measurement": "β2-GPI binding (Cof-22 binding), No treatment", "setting": "β2-GPI [1]", "value": "1.002 +/− 0.084"}, {"measurement": "β2-GPI binding to lipid", "setting": "β2-GPI [1]", "value": "significant bonding"}, {"measurement": "binding of the anti-β2-GPI autoantibodies (WB-CAL-1 and EY2C9) to solid-phase ligand", "setting": "anti-β2-GPI antibodies", "value": "significant binding"}]}, {"molecule": "β2-GPI: β2-Glycoprotein I purified from normal human plasma (protein, UniProt P02749 20-345, looked up) Beta-2-glycoprotein 1: GRTCPKPDDLPFSTVVPLKTFYEPGEEITYSCKPGYVSRGGMRKFICPLTGLWPINTLKCTPRVCPFAGILENGAVRYTTFEYPNTISFSCNTGFYLNGADSAKCTEEGKWSPELPVCAPIICPPPSIPTFATLRVYKPSAGNNSLYRDTAVFECLPQHAMFGNDTITCTTHGNWTKLPECREVKCPFPSRPDNGFVNYPAKPTLYYKDKATFGCHDGYSLDGPEEIECTKLGNWSAMPSCKASCKVPVKKATVVYQGERVKIQEKFKNGMLHGDKVSFFCKNKEKKCSYTEDAQCIDGTIEVPKCFKEHSSLAFWKTDASDVKPC", "values": [{"measurement": "Binding of protein-dependent oxLig-1 antibody, APS-1", "setting": "APS-1", "value": "1.043 ± 0.054"}, {"measurement": "Binding of protein-dependent oxLig-1 antibody, EY2C9", "setting": "EY2C9; [3]", "value": "1.147 ± 0.028"}, {"measurement": "Binding of protein-dependent oxLig-1 antibody, WB-CAL-1", "setting": "WB-CAL-1; [3]", "value": "0.812 ± 0.023"}, {"measurement": "Binding of protein-dependent oxLig-1 antibody, Cof-22", "setting": "β2-GPI [2]", "value": "1.007 ± 0.031"}, {"measurement": "Binding of protein-dependent oxLig-1 antibody, APS-2", "setting": "APS-2", "value": "0.755 ± 0.024"}]}]}
